Test results taken from PubChem BioAssay AID248 (DTP/NCI, 2004).
Several values for one entry are separate records, joined by “and”; a condition that tells them apart may be missing. Identical values can stand only once. Inconclusive results and toxic doses are left out.

System: L1210 leukemia ip in BDF1 mice, survival T/C
Test: NCI In Vivo Anticancer Drug Screen. Data for tumor model L1210 Leukemia (intraperitoneal) in B6D2F1 (BDF1) mice
Details: endpoint: mean survival time, higher = longer survival
Outline: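 Transplanted-tumor mice were given test agent; controls received vehicle only. Survival readings from the two groups were divided (treated over control).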

[1] = dose: 25.0 mg/kg/injection, schedule: Q04DX003 (ip), vehicle: saline
[2] = dose: 50.0 mg/kg/injection, schedule: Q01DX009 (ip), vehicle: saline
[3] = dose: 50.0 mg/kg/injection, schedule: Q04DX003 (ip), vehicle: saline with Tween-80
[4] = dose: 50.0 mg/kg/injection, schedule: Q04DX003 (ip), vehicle: saline
[5] = dose: 100.0 mg/kg/injection, schedule: Q04DX003 (ip), vehicle: Klucel (hydroxypropylcellulose) (HPC)
[6] = dose: 100.0 mg/kg/injection, schedule: Q04DX003 (ip), vehicle: saline with Tween-80
[7] = dose: 200.0 mg/kg/injection, schedule: Q04DX003 (ip), vehicle: Klucel (hydroxypropylcellulose) (HPC)
[8] = dose: 200.0 mg/kg/injection, schedule: Q04DX003 (ip), vehicle: saline with Tween-80
[9] = dose: 400.0 mg/kg/injection, schedule: Q04DX003 (ip), vehicle: saline with Tween-80
[10] = dose: 100.0 mg/kg/injection, schedule: Q01DX009 (ip), vehicle: saline
[11] = dose: 200.0 mg/kg/injection, schedule: Q01DX009 (ip), vehicle: saline
[12] = dose: 50.0 mg/kg/injection, schedule: Q01DX001 (ip), vehicle: saline
[13] = dose: 100.0 mg/kg/injection, schedule: Q01DX001 (ip), vehicle: saline
[14] = dose: 200.0 mg/kg/injection, schedule: Q01DX001 (ip), vehicle: saline
[15] = dose: 400.0 mg/kg/injection, schedule: Q01DX001 (ip), vehicle: saline
[16] = dose: 400.0 mg/kg/injection, schedule: Q04DX003 (ip), vehicle: Klucel (hydroxypropylcellulose) (HPC)
[17] = dose: 100.0 mg/kg/injection, schedule: Q04DX003 (ip), vehicle: saline

## COc1cc2c(cc1OC)C13CCN4CC5=CCOC6CC(=O)N2C1C6C5CC43 (centres undefined) (tested in a mixture with another compound)
dose: 12.0 mg/kg/injection, schedule: Q01DX001 (ip), vehicle: Klucel (hydroxypropylcellulose) (HPC)
  T/C: 89 % of control
dose: 12.0 mg/kg/injection, schedule: Q01DX009 (ip), vehicle: Klucel (hydroxypropylcellulose) (HPC)
  T/C: 97 % of control
dose: 12.5 mg/kg/injection, schedule: Q01DX001 (ip), vehicle: Klucel (hydroxypropylcellulose) (HPC)
  T/C: 101 % of control
dose: 12.5 mg/kg/injection, schedule: Q01DX009 (ip), vehicle: saline
  T/C: 97 % of control
dose: 25.0 mg/kg/injection, schedule: Q01DX001 (ip), vehicle: Klucel (hydroxypropylcellulose) (HPC)
  T/C: 95 % of control and 93 % of control
dose: 25.0 mg/kg/injection, schedule: Q01DX001 (ip), vehicle: saline with Tween-80
  T/C: 89 % of control
dose: 25.0 mg/kg/injection, schedule: Q01DX009 (ip), vehicle: Klucel (hydroxypropylcellulose) (HPC)
  T/C: 96 % of control
dose: 25.0 mg/kg/injection, schedule: Q01DX009 (ip), vehicle: saline
  T/C: 97 % of control
dose: 25.0 mg/kg/injection, schedule: Q04DX003 (ip), vehicle: Klucel (hydroxypropylcellulose) (HPC)
  T/C: 104 % of control
dose: 25.0 mg/kg/injection, schedule: Q04DX003 (ip), vehicle: saline with Tween-80
  T/C: 94 % of control
[1]
  T/C: 111 % of control
dose: 50.0 mg/kg/injection, schedule: Q01DX001 (ip), vehicle: Klucel (hydroxypropylcellulose) (HPC)
  T/C: 100 % of control and 102 % of control
dose: 50.0 mg/kg/injection, schedule: Q01DX001 (ip), vehicle: saline with Tween-80
  T/C: 96 % of control
dose: 50.0 mg/kg/injection, schedule: Q01DX009 (ip), vehicle: Klucel (hydroxypropylcellulose) (HPC)
  T/C: 91 % of control
[2]
  T/C: 106 % of control
dose: 50.0 mg/kg/injection, schedule: Q04DX003 (ip), vehicle: Klucel (hydroxypropylcellulose) (HPC)
  T/C: 107 % of control
[3]
  T/C: 100 % of control
[4]
  T/C: 107 % of control
dose: 75.0 mg/kg/injection, schedule: Q01DX001 (ip), vehicle: other
  T/C: 95 % of control
dose: 75.0 mg/kg/injection, schedule: Q01DX001 (ip), vehicle: saline
  T/C: 98 % of control and 94 % of control and 107 % of control
dose: 75.0 mg/kg/injection, schedule: Q01DX009 (ip), vehicle: saline
  T/C: 107 % of control
dose: 100.0 mg/kg/injection, schedule: Q01DX001 (ip), vehicle: Klucel (hydroxypropylcellulose) (HPC)
  T/C: 103 % of control
[5]
  T/C: 95 % of control
[6]
  T/C: 89 % of control
dose: 150.0 mg/kg/injection, schedule: Q01DX001 (ip), vehicle: other
  T/C: 86 % of control
dose: 150.0 mg/kg/injection, schedule: Q01DX001 (ip), vehicle: saline
  T/C: 98 % of control
[7]
  T/C: 90 % of control
dose: 300.0 mg/kg/injection, schedule: Q01DX001 (ip), vehicle: other
  T/C: 89 % of control

## CCCCC(CC)(CO)CO
[6]
  T/C: 110 % of control
[8]
  T/C: 100 % of control
[9]
  T/C: 111 % of control

## c1ccc(-c2nc(-c3ccccc3)c(-c3ccccc3)nc2-c2ccccc2)cc1
dose: 100.0 mg/kg/injection, schedule: Q01DX001 (ip), vehicle: gum acacia
  T/C: 89 % of control
dose: 200.0 mg/kg/injection, schedule: Q01DX001 (ip), vehicle: gum acacia
  T/C: 91 % of control
dose: 400.0 mg/kg/injection, schedule: Q01DX001 (ip), vehicle: gum acacia
  T/C: 86 % of control

## O=C(NC(=S)c1ccc[nH]1)Nc1ccccc1
[2]
  T/C: 93 % of control
[10]
  T/C: 90 % of control
[11]
  T/C: 90 % of control

## Cn1cc(N)c(=O)[nH]c1=O
[12]
  T/C: 101 % of control
[13]
  T/C: 101 % of control
[14]
  T/C: 101 % of control
[15]
  T/C: 103 % of control

## O=C(/C=C/c1ccccc1)c1ccccn1
[6]
  T/C: 100 % of control
[8]
  T/C: 104 % of control
[9]
  T/C: 100 % of control

## COc1ccc([N+](=O)[O-])cc1N
[5]
  T/C: 101 % of control
[7]
  T/C: 104 % of control
[16]
  T/C: 90 % of control

## Cc1ccc([Si](C)(C)[Si](C)C)cc1
[5]
  T/C: 98 % of control
[7]
  T/C: 102 % of control
[16]
  T/C: 105 % of control

## CCOC(=O)N1CCOCC1
[10]
  T/C: 100 % of control
[11]
  T/C: 97 % of control
dose: 400.0 mg/kg/injection, schedule: Q01DX009 (ip), vehicle: saline
  T/C: 96 % of control

## Cc1cc2c(cc1C)NC(=O)CC(=O)N2
dose: 100.0 mg/kg/injection, schedule: Q01DX009 (ip), vehicle: Klucel (hydroxypropylcellulose) (HPC)
  T/C: 96 % of control and 97 % of control
[5]
  T/C: 92 % of control
dose: 200.0 mg/kg/injection, schedule: Q01DX009 (ip), vehicle: Klucel (hydroxypropylcellulose) (HPC)
  T/C: 86 % of control
[7]
  T/C: 100 % of control
dose: 400.0 mg/kg/injection, schedule: Q01DX009 (ip), vehicle: Klucel (hydroxypropylcellulose) (HPC)
  T/C: 89 % of control
[16]
  T/C: 89 % of control

## COC(=O)C1OC(n2cnc3c(Cl)ncnc32)C(OC(C)=O)C(OC(C)=O)C1OC(C)=O (centres undefined)
dose: 50.0 mg/kg/injection, schedule: Q01DX001 (ip), vehicle: carboxymethylcellulose (CMC)
  T/C: 100 % of control
dose: 100.0 mg/kg/injection, schedule: Q01DX001 (ip), vehicle: carboxymethylcellulose (CMC)
  T/C: 108 % of control
dose: 200.0 mg/kg/injection, schedule: Q01DX001 (ip), vehicle: carboxymethylcellulose (CMC)
  T/C: 103 % of control
dose: 400.0 mg/kg/injection, schedule: Q01DX001 (ip), vehicle: carboxymethylcellulose (CMC)
  T/C: 97 % of control

## OCC1OC(n2ccc3c(SCc4ccccc4)ncnc32)C(O)C1O (centres undefined)
dose: 25.0 mg/kg/injection, schedule: Q01DX001 (ip), vehicle: saline
  T/C: 110 % of control
[12]
  T/C: 107 % of control
[13]
  T/C: 98 % of control
[14]
  T/C: 116 % of control

## Cc1ccc(C(C)C)c(OCC(O)CN2CC=CCC2)c1 (centres undefined)
[1]
  T/C: 100 % of control
[4]
  T/C: 112 % of control
[17]
  T/C: 99 % of control and 109 % of control

## NNc1nncc(-c2ccccc2)n1
dose: 25.0 mg/kg/injection, schedule: Q01DX001 (ip), vehicle: other
  T/C: 100 % of control
dose: 50.0 mg/kg/injection, schedule: Q01DX001 (ip), vehicle: other
  T/C: 103 % of control
dose: 200.0 mg/kg/injection, schedule: Q01DX001 (ip), vehicle: other
  T/C: 105 % of control

## O=[N+]([O-])c1ccc(CC2=NCCc3cc4c(cc32)OCO4)cc1
[13]
  T/C: 98 % of control
[14]
  T/C: 96 % of control
[15]
  T/C: 105 % of control

## CC(C)(C)OC(=O)CC1(C)CCC2C1C(=O)OC2(C)C (centres undefined)
[1]
  T/C: 98 % of control
[4]
  T/C: 98 % of control
[13]
  T/C: 91 % of control
[17]
  T/C: 102 % of control

## COc1cccc(NC(=O)CCC(=O)O)c1
dose: 25.0 mg/kg/injection, schedule: Q01DX009 (ip), vehicle: saline with Tween-80
  T/C: 105 % of control
dose: 50.0 mg/kg/injection, schedule: Q01DX009 (ip), vehicle: saline with Tween-80
  T/C: 100 % of control
[3]
  T/C: 98 % of control
[6]
  T/C: 103 % of control
dose: 200.0 mg/kg/injection, schedule: Q01DX009 (ip), vehicle: saline with Tween-80
  T/C: 88 % of control
[8]
  T/C: 97 % of control
dose: 400.0 mg/kg/injection, schedule: Q01DX009 (ip), vehicle: saline with Tween-80
  T/C: 95 % of control
[9]
  T/C: 103 % of control

## O=S(=O)(CBr)N1CCOCC1
[3]
  T/C: 93 % of control
[6]
  T/C: 98 % of control
[8]
  T/C: 98 % of control

## CCN1CCC2CN(C(=O)Nc3ccccc3)CCN2C1=O (centres undefined)
[6]
  T/C: 98 % of control
[8]
  T/C: 90 % of control
[9]
  T/C: 87 % of control

## CN(N=O)C(=O)NCCCCNC(=O)N(C)N=O
dose: 6.25 mg/kg/injection, schedule: Q01DX Z (ip), vehicle: carboxymethylcellulose (CMC)
  T/C: 107 % of control
dose: 12.5 mg/kg/injection, schedule: Q01DX Z (ip), vehicle: carboxymethylcellulose (CMC)
  T/C: 112 % of control
dose: 25.0 mg/kg/injection, schedule: Q01DX Z (ip), vehicle: carboxymethylcellulose (CMC)
  T/C: 111 % of control
dose: 50.0 mg/kg/injection, schedule: Q01DX Z (ip), vehicle: carboxymethylcellulose (CMC)
  T/C: 108 % of control
dose: 200.0 mg/kg/injection, schedule: Q01DX Z (ip), vehicle: carboxymethylcellulose (CMC)
  T/C: 163 % of control
